Values of other authors, collected in patent US10517870B2, “Aryl substituted bicycle heteroaryl compounds” (Bristol-Myers Squibb Company, priority 2015, dated 2019).

What was measured:
[1] = ACS patients, TRACER phase III trial; cited from earlier work
[2] = biological target: T1, protease-activated receptor type 4 (PAR4) (Homo sapiens, UniProt Q96RI0); conditions: Lee et al., J. Med. Chem. 2001; cited from earlier work
T1 sequence (Q96RI0 18-385): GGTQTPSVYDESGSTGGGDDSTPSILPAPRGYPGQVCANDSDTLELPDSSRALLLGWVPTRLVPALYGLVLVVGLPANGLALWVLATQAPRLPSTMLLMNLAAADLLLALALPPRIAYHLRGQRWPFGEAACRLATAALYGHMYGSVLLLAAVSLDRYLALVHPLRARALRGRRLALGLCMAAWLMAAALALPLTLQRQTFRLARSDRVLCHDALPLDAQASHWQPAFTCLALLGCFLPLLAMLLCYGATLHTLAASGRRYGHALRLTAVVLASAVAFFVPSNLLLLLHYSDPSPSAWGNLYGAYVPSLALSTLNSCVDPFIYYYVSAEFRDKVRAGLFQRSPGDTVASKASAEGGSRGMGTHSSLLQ

CCOC(=O)N[C@@H]1CC[C@@H]2[C@@H](C1)C[C@H]1C(=O)O[C@H](C)[C@H]1[C@H]2/C=C/c1ccc(-c2cccc(F)c2)cn1 [vorapaxar]
cardiovascular events [1]: did not significantly reduce cardiovascular events | risk of major bleeding [1]: significantly increased the risk of major bleeding

CCOC(=O)c1ccc(-c2nn(Cc3ccccc3)c3ccccc23)cc1 [YD-3]
inhibition of PAR4-dependent platelet activation [2]: selective and potent inhibitor
